# Values quoted from earlier work, collected in patent publication US20250319022A1, “CONCENTRATED SOLUTIONS COMPRISING SODIUM 5,10-METHYLENE-(6R)-TETRAHYDROFOLATE” (Merck Patent GMBH, priority 2022, published 2025).
smiles,measurement,setting,value
"Nc1nc2c(c(=O)[nH]1)N1CN(c3ccc(C(=O)N[C@@H](CCC(=O)O)C(=O)O)cc3)C[C@H]1CN2 [5,10-methylene-(6R,S)-tetrahydrofolic acid]",purity after 7 hours,7 hours after dissolution,84%
same,purity after 24 hours compared to the starting purity (% normalized purity),24 hours following dissolution in water,44.9%
same,loss of purity per hour (degradation rate),"reconstituted lyophilizate, linear regression of stability profile",2.3 % purity per hour
